Laboratory results taken from ChEMBL document CHEMBL3875185, “Structure-anticonvulsant activity studies in the group of (E)-N-cinnamoyl aminoalkanols derivatives monosubstituted in phenyl ring with 4-Cl, 4-CH3 or 2-CH3” (Bioorg Med Chem, 2017).

Experiments:
Rattus norvegicus [1] = species: Rattus norvegicus; assay: Displacement of [35S]TBPS from rat cerebral cortex GABA-gated chloride channel at 100 uM measured after 60 mins by scintillation counting method relative to control
Mus musculus [2] = assay: Neurotoxicity in mouse assessed as induction of motor impairment at 30 mg/kg, ip measured at 0.5 hrs post dose by rotarod method; format: toxicity, organism-based; details: in vivo
Mus musculus [3] = assay: Anticonvulsant activity in ip dosed 6-Hz induced seizure mouse model assessed as restoration of normal activity within 10 secs from stimulation by measuring time to peak effect at 44 mA; format: functional
[4] = target: T1, C-C chemokine receptor type 1 (Homo sapiens) (UniProt P32246); assay: Displacement of [125I]MIP-1a from human recombinant CCR1 receptor expressed in HEK293 cells at 100 uM measured after 120 mins by scintillation counting method relative to control; format: cell-based
T1 sequence (whole entry): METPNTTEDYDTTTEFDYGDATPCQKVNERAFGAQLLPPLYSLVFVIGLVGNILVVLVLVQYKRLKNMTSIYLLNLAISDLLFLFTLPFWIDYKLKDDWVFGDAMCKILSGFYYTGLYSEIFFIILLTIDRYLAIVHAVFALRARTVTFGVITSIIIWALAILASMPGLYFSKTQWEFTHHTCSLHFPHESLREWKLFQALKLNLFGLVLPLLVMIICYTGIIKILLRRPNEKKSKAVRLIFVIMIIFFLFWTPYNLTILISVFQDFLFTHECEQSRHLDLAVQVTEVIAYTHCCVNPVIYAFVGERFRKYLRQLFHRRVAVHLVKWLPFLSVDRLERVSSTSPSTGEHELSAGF

[5] = target: 5-hydroxytryptamine receptor 1B (Rattus norvegicus) (UniProt P28564); assay: Displacement of [125I]CYP from rat cerebral cortex 5HT1B receptor at 100 uM measured after 120 mins by scintillation counting method relative to control
5-hydroxytryptamine receptor 1B (Rattus norvegicus), sequence (P28564 whole entry): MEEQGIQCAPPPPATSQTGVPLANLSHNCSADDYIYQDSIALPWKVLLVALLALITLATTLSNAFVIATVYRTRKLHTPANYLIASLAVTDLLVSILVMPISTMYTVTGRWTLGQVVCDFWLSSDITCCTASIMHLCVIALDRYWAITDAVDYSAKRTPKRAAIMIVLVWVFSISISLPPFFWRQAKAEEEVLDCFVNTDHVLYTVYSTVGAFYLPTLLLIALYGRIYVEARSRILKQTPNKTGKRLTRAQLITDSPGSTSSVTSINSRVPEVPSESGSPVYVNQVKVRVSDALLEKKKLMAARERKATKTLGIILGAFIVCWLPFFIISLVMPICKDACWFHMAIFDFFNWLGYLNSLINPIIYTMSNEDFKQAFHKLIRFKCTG

Mus musculus [6] = assay: Neurotoxicity in ip dosed mouse assessed as induction of motor impairment by measuring time to peak effect by rotarod method; format: toxicity, organism-based; details: in vivo
[7] = Protection index, ratio of TD50 for neurotoxicity in ip dosed Sprague-Dawley rat model to ED50 for ip dosed pentylenetetrazole induced seizure Sprague-Dawley rat model; format: toxicity, organism-based; details: in vivo, read-out: Ratio TD50/ED50
Jurkat = assay: Displacement of [3H]DTG from sigma receptor in human Jurkat cells at 100 uM measured after 120 mins by scintillation counting method relative to control; format: cell-based
Rattus norvegicus [8] = assay: Neurotoxicity in Sprague-Dawley rat assessed as behavioral change at 30 mg/kg, po measured at […] post dose; format: toxicity, organism-based; details: in vivo
[9] = target: T2, 5-hydroxytryptamine receptor 1A (Homo sapiens) (UniProt P08908); assay: Displacement of [3H]8-OH-DPAT from human recombinant 5HT1A receptor expressed in HEK293 cells at 100 uM measured after 60 mins by scintillation counting method relative to control; format: cell-based
T2 sequence (whole entry): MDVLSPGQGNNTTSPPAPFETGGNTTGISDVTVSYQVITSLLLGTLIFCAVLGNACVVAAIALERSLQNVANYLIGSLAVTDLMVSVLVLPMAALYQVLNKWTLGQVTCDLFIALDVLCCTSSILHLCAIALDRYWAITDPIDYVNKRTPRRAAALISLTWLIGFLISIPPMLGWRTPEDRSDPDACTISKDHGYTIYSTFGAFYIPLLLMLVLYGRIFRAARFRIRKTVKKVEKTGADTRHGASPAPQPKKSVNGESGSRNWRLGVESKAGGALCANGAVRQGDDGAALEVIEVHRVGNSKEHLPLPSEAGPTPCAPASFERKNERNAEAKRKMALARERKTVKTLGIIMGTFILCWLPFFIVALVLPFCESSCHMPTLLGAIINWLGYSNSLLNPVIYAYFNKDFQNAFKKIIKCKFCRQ

[10] = target: T3, Vasoactive intestinal polypeptide receptor 1 (Homo sapiens) (UniProt P32241); assay: Displacement of [125I]VIP from human recombinant VPAC1 receptor expressed in CHO cells at 100 uM measured after 60 mins by scintillation counting method relative to control; format: cell-based
T3 sequence (whole entry): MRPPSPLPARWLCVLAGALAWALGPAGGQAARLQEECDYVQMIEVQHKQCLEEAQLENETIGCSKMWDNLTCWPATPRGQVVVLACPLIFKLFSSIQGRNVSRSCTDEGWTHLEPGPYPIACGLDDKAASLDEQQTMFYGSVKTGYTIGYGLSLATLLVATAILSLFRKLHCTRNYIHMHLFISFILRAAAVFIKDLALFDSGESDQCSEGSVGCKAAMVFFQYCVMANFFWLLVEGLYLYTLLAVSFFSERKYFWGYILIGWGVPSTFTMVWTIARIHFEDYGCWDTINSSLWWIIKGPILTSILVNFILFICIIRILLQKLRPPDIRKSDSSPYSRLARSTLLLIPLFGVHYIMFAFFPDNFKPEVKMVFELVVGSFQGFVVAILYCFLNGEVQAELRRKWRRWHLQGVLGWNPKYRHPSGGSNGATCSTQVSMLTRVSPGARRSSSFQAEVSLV

[11] = target: Sodium-dependent serotonin transporter (Homo sapiens) (UniProt P31645); assay: Displacement of [3H]imipramine from human recombinant 5HT transporter expressed in CHO cells at 100 uM measured after 60 mins by scintillation counting method relative to control; format: cell-based
Sodium-dependent serotonin transporter (Homo sapiens), sequence (P31645 whole entry, looked up): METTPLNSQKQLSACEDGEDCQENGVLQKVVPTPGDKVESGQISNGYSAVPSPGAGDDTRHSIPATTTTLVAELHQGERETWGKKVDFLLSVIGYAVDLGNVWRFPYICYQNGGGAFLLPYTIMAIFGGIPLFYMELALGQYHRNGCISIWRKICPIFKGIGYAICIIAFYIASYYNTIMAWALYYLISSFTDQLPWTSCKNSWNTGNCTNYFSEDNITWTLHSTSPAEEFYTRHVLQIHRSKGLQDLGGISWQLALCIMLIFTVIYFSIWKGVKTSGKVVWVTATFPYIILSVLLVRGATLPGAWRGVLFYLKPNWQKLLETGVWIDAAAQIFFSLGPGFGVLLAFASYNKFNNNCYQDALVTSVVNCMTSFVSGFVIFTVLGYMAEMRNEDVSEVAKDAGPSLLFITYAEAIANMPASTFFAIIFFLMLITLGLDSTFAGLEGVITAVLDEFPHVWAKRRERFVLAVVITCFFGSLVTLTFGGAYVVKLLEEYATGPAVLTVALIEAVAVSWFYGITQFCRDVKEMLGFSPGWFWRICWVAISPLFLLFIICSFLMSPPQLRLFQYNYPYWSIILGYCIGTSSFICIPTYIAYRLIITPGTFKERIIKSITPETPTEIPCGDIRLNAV

[12] = target: Delta-type opioid receptor (Homo sapiens) (UniProt P41143); assay: Displacement of [3H]DADLE from human recombinant delta opioid receptor expressed in CHO cells at 100 uM measured after 120 mins by scintillation counting method relative to control; format: cell-based
Delta-type opioid receptor (Homo sapiens), sequence (P41143 whole entry): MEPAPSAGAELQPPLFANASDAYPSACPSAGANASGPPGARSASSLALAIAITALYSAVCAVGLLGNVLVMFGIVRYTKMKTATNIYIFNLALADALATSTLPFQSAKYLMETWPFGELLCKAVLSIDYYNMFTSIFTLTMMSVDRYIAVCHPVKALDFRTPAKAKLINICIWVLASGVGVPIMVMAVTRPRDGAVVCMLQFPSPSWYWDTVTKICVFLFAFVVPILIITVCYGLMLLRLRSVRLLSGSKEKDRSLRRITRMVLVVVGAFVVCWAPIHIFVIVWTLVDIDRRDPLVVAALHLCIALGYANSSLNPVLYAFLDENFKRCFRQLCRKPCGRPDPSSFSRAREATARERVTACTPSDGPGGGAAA

Mus musculus [13] = assay: Neurotoxicity in mouse assessed as induction of motor impairment at 100 mg/kg, ip measured at 4 hrs post dose by rotarod method; format: toxicity, organism-based; details: in vivo
[14] = target: T4, Peroxisome proliferator-activated receptor gamma (Homo sapiens) (UniProt P37231); assay: Displacement of [3H]rosiglitazone from human recombinant PPAR-gamma receptor expressed in Escherichia coli at 100 uM measured after 120 mins by scintillation counting method relative to control
T4 sequence (whole entry): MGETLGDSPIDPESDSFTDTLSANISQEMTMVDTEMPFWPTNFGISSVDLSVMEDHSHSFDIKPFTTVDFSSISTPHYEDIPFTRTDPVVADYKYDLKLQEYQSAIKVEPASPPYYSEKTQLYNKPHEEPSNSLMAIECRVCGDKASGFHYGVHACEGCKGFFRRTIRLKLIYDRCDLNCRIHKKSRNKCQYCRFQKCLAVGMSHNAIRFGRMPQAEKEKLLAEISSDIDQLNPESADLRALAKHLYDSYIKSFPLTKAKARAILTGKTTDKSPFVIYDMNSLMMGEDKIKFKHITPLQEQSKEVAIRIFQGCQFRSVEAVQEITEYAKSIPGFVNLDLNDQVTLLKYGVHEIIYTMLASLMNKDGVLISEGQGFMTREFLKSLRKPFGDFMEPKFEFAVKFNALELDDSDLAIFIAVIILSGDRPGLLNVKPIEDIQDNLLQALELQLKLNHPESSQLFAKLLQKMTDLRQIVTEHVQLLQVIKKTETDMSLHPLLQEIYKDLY

Rattus norvegicus [15] = assay: Anticonvulsant activity in ip dosed maximal electroshock induced seizure Sprague-Dawley rat model assessed as suppression in hindlimb tonic extension; format: functional

SMILES	inhibition (Rattus norvegicus [1])	Activity (Mus musculus [2])	Time (Mus musculus [3])	inhibition [4]	inhibition [5]	Time (Mus musculus [6])	selectivity ratio [7]	inhibition (Jurkat)	Activity (Rattus norvegicus [8])	inhibition [9]	inhibition [10]	inhibition [11]	inhibition [12]	Activity (Mus musculus [13])	inhibition [14]	ED50 (Rattus norvegicus [15])
Cc1ccccc1/C=C/C(=O)N[C@@H](C)CO	17.7%	Non-Toxic	0.5 h	-3.7%	32.4%	0.5 h	4.18	-3.5%	Non-Toxic	51.2%	2%	0.9%	3%	Non-Toxic	3%	16.3 mg/kg
CCC(CO)NC(=O)/C=C/c1ccc(Cl)cc1 (stereo not drawn)	37.2%	Non-Toxic	0.5 h	-2.2%	-1.5%	0.25 h	1.23	25.4%	Non-Toxic	28.2%	4.8%	-2.5%	6%	Non-Toxic	26.7%	21.2 mg/kg
CC(O)CNC(=O)/C=C/c1ccc(Cl)cc1 (stereo not drawn)	22.6%	Non-Toxic	0.25 h	-2%	-3.2%	0.25 h	1.25	22.9%	Non-Toxic	76.6%	-0.4%	-1.9%	3.2%	Non-Toxic	2.3%	41.9 mg/kg
